{
  "source": "PubChem BioAssay AID2060896",
  "about": "(Molecular Pharmacology Branch, DTP, NCI, 2025);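 also: spheroids exposed to compounds for 7 days before readout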;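 as to viability, T/C: 100% = DMSO vehicle control viability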",
  "tested_on": "941728-121-R-J1-PDC complex spheroid viability",
  "assay": "Anticancer human tumor 941728-121-R-J1-PDC patient-derived lung adenocarcinoma cell line growth inhibition [RAS]",
  "conditions": "for IC50: curve of first compound; for viability, T/C: stronger effect = lower value",
  "description": "RAS pathway inhibitors in Combinations in Complex Spheroids\nA high-throughput screen of multi-cell type tumor spheroids was designed to identify active combinations of RAS pathway inhibitors and targeted small molecules. Complex spheroids include a stromal component modeled by human endothelial cells (HUVEC) and fibroblasts modeled by human mesenchymal stem cells (MSCs). The concentration ranges selected for each drug and investigational agent were based upon clinically achievable concentrations if the clinical Cmax of the agent was known.\nCompounds. The drugs and investigational agents: abemaciclib (NSC768073), cobimetinib (NSC768068), divarasib (GDC6063, NSC841802), docetaxel (NSC628503), GDC-1971 (RLY-1971, NSC841576), gemcitabine (NSC613327), inavolisib (NSC800729), ipatasertib (NSC767898), KB-0742 (NSC834161), MRTX-1133 (NSC836407), osimertinib (NSC779217), RMC-4630 (NSC839698), RMC-6236 (NSC851965), RMC-6291 (NSC852671), Ro-3306 (NSC812927), sapanisertib (NSC764658), SN-38 (NSC673596), staurosporine (NSC755774), SY5609 (NSC837396), and tovorafenib (DAY101, NSC766906), were obtained from the National Cancer Institute (NCI) Developmental Therapeutics Program Chemical Repository. The FDA-approved anticancer drug set is available from the NCI Developmental Therapeutics Program. […] The stock solutions were prepared in dimethyl sulfoxide (DMSO, Sigma-Aldrich, St. Louis, MO, cat. D2650) at 800-fold the tested concentration and stored at -70 degrees C prior to their use. All drugs and investigational agents were tested over a range starting from a high concentration at or near the clinical Cmax and decreasing in half-log increments. If the clinical Cmax for an agent had not been determined, the highest concentration tested was 10 microM.\nCell Culture. All cells were maintained in an incubator at 37 degrees C and 5% CO2 with 95% humidity. The PDC lines were cultured according to standard operating procedures established by the NCI PDMR. All PDCs were thawed and cultured in Matrigel-coated flasks prepared with a working solution of 1X Ham's F-12 nutrient mix, without supplementation (Invitrogen, Waltham, MA, cat. 11765054), 100 U/mL penicillin-streptomycin (Invitrogen, cat. 15140122), and 2.5% Matrigel (Corning Inc., Corning, NY, cat. 354248) for the first three passages. The 362531-283-R-J2-PDC and 782815-120-R-J1-PDC lines were cultured in 6C/Colon 1B media, which includes advanced DMEM/F-12 (Thermo Fisher Scientific, cat. 12634028), 10 mM HEPES (Thermo Fisher Scientific, cat. 15630080), 1X GlutaMAX supplement (Thermo Fisher Scientific, cat. 35050061), 0.1 mg/mL primocin (InvivoGen, San Diego, CA, cat. ant-pm-2), 10% defined fetal bovine serum, heat inactivated (HyClone Laboratories Inc., Logan, UT, cat. SH30070.03HI), 50% L-WRN conditioned media (ATCC, cat. CRL-3276), 1.25 mM N-Acetyl-L-cysteine (Sigma-Aldrich, cat. A9165), 10 mM nicotinamide (Sigma-Aldrich, cat. N0636), 1X B-27 supplement (Thermo Fisher Scientific, cat. 17504044), 1X N-2 supplement (Thermo Fisher Scientific, cat. 17502048), 50 ng/mL human EGF (Thermo Fisher Scientific, cat. PHG0311), and 10 microM Y-27632 dihydrochloride (Tocris Bioscience, cat. 1254). The K12877-001-R-J1-PDC line was cultured in 6I media, which includes all 6C/Colon 1B media plus 10 ng/mL human FGF-10 (PeproTech, cat. 100-26), 1 ng/mL human FGF-2 (PeproTech, cat. 100-18B), 1 µM prostaglandin E2 (Tocris Bioscience, cat. 2296), […] hydrocortisone (Sigma-Aldrich, cat. H4001), and […] bovine insulin (Sigma-Aldrich, cat. I6634). The K86415-001-R-J1-PDC line was cultured in 6D media, which includes all 6C/Colon 1B media components minus the L-WRN conditioned media. The 485176-168-R4-J1-PDC was cultured in PANC media, which includes all 6C/Colon 1B media plus 100 ng/mL human FGF-10 (PeproTech, cat. 100-26), 500 nM SB-431542 (Selleckchem, cat. S1067), and 10 nM gastrin (Tocris Bioscience, cat. 3006). […]",
  "data": [
    {"smiles": "CCC(CC)c1cc(NC2CCC(N)C2)n2nccc2n1", "note": "(configuration not stated) + C#Cc1c(F)ccc2cc(O)cc(-c3ncc4c(N5CC6CCC(C5)N6)nc(OCC56CCCN5CC(F)C6)nc4c3F)c12", "values": [
      {"measurement": "IC50", "setting": "second compound 0.0316 µM", "value": 2100, "unit": "nM"},
      {"measurement": "IC50", "setting": "second compound 0.1 µM", "value": 1970, "unit": "nM"},
      {"measurement": "IC50", "setting": "second compound 0.316 µM", "value": 1470, "unit": "nM"},
      {"measurement": "IC50", "setting": "second compound 1 µM", "value": "< 31.6", "unit": "nM"},
      {"measurement": "IC50", "setting": "second compound 3.16 µM", "value": "< 31.6", "unit": "nM"},
      {"measurement": "IC50", "setting": "second compound 10 µM", "value": "< 31.6", "unit": "nM"},
      {"measurement": "viability, T/C", "setting": "second compound 0.0316 µM, first compound 0.0316 µM", "value": 96.6, "unit": "%"},
      {"measurement": "viability, T/C", "setting": "second compound 0.0316 µM, first compound 0.1 µM", "value": 82.6, "unit": "%"},
      {"measurement": "viability, T/C", "setting": "second compound 0.0316 µM, first compound 0.316 µM", "value": 91.4, "unit": "%"},
      {"measurement": "viability, T/C", "setting": "second compound 0.0316 µM, first compound 1 µM", "value": 90.5, "unit": "%"},
      {"measurement": "viability, T/C", "setting": "second compound 0.0316 µM, first compound 3.16 µM", "value": 19.2, "unit": "%"},
      {"measurement": "viability, T/C", "setting": "second compound 0.0316 µM, first compound 10 µM", "value": 36.7, "unit": "%"},
      {"measurement": "viability, T/C", "setting": "second compound 0.1 µM, first compound 0.0316 µM", "value": 96.1, "unit": "%"},
      {"measurement": "viability, T/C", "setting": "second compound 0.1 µM, first compound 0.1 µM", "value": 79, "unit": "%"},
      {"measurement": "viability, T/C", "setting": "second compound 0.1 µM, first compound 0.316 µM", "value": 78.5, "unit": "%"},
      {"measurement": "viability, T/C", "setting": "second compound 0.1 µM, first compound 1 µM", "value": 84.1, "unit": "%"},
      {"measurement": "viability, T/C", "setting": "second compound 0.1 µM, first compound 3.16 µM", "value": 20.8, "unit": "%"},
      {"measurement": "viability, T/C", "setting": "second compound 0.1 µM, first compound 10 µM", "value": 31.4, "unit": "%"},
      {"measurement": "viability, T/C", "setting": "second compound 0.316 µM, first compound 0.0316 µM", "value": 60.9, "unit": "%"},
      {"measurement": "viability, T/C", "setting": "second compound 0.316 µM, first compound 0.1 µM", "value": 83.7, "unit": "%"},
      {"measurement": "viability, T/C", "setting": "second compound 0.316 µM, first compound 0.316 µM", "value": 59.5, "unit": "%"},
      {"measurement": "viability, T/C", "setting": "second compound 0.316 µM, first compound 1 µM", "value": 63.1, "unit": "%"},
      {"measurement": "viability, T/C", "setting": "second compound 0.316 µM, first compound 3.16 µM", "value": 18.4, "unit": "%"},
      {"measurement": "viability, T/C", "setting": "second compound 0.316 µM, first compound 10 µM", "value": 29.7, "unit": "%"},
      {"measurement": "viability, T/C", "setting": "second compound 1 µM, first compound 0.0316 µM", "value": 40.1, "unit": "%"},
      {"measurement": "viability, T/C", "setting": "second compound 1 µM, first compound 0.1 µM", "value": 40.1, "unit": "%"},
      {"measurement": "viability, T/C", "setting": "second compound 1 µM, first compound 0.316 µM", "value": 41.4, "unit": "%"},
      {"measurement": "viability, T/C", "setting": "second compound 1 µM, first compound 1 µM", "value": 46.2, "unit": "%"},
      {"measurement": "viability, T/C", "setting": "second compound 1 µM, first compound 3.16 µM", "value": 18.7, "unit": "%"},
      {"measurement": "viability, T/C", "setting": "second compound 1 µM, first compound 10 µM", "value": 32.7, "unit": "%"},
      {"measurement": "viability, T/C", "setting": "second compound 3.16 µM, first compound 0.0316 µM", "value": 31.5, "unit": "%"},
      {"measurement": "viability, T/C", "setting": "second compound 3.16 µM, first compound 0.1 µM", "value": 33.1, "unit": "%"},
      {"measurement": "viability, T/C", "setting": "second compound 3.16 µM, first compound 0.316 µM", "value": 37.6, "unit": "%"},
      {"measurement": "viability, T/C", "setting": "second compound 3.16 µM, first compound 1 µM", "value": 35.8, "unit": "%"},
      {"measurement": "viability, T/C", "setting": "second compound 3.16 µM, first compound 3.16 µM", "value": 15.3, "unit": "%"},
      {"measurement": "viability, T/C", "setting": "second compound 3.16 µM, first compound 10 µM", "value": 34.3, "unit": "%"},
      {"measurement": "viability, T/C", "setting": "second compound 10 µM, first compound 0.0316 µM", "value": 23.2, "unit": "%"},
      {"measurement": "viability, T/C", "setting": "second compound 10 µM, first compound 0.1 µM", "value": 25.9, "unit": "%"},
      {"measurement": "viability, T/C", "setting": "second compound 10 µM, first compound 0.316 µM", "value": 27.2, "unit": "%"},
      {"measurement": "viability, T/C", "setting": "second compound 10 µM, first compound 1 µM", "value": 25.6, "unit": "%"},
      {"measurement": "viability, T/C", "setting": "second compound 10 µM, first compound 3.16 µM", "value": 11.4, "unit": "%"},
      {"measurement": "viability, T/C", "setting": "second compound 10 µM, first compound 10 µM", "value": 25.6, "unit": "%"}
    ]}
  ]
}
